From patent publication US20210009950A1, “ANGIOGENESIS-INDUCING METHOD USING NEURAL STEM CELL” (MEDINNO INC., priority 2018, published 2021) come the findings set out here.

One assay has as its system Groα. The class given is cell-based, human.
The subject of a further assay is MCP-1. The class given is cell-based, human.

Structures are written as SMILES.

Turning to `[Cl-].[Cl-].[Co+2]` [CoCl2], in the assay on Groα, the “amount of Groα at 24 hours after CoCl2 treatment” value was “increased in a concentration-dependent manner”; the “amount of Groα at CoCl2 200 μM or more compared to 100 μM” value was “reduced”; the “amount of Groα, another 24 hours after medium replaced with DMEM/F12” value is reported as “highest when 100 μM CoCl2 was treated”; the “expression of Gro” value was “increased”. In addition, the “CoCl2 concentration giving highest Groα at 24 hours after treatment” value in the assay with Groα (24 hours) was 500 µM. Also, in the assay on MCP-1, the “amount of MCP-1 at 24 hours after CoCl2 treatment” value was “increased in proportion to the concentration”; the “amount of MCP-1 at CoCl2 300 μM or more compared to 100 and 200 μM” value was “reduced”; the “expression level of MCP-1, another 24 hours after medium replaced with DMEM/F12” value is listed as “highest in the case of treatment of 100 μM CoCl2”; the “expression of MCP-1” value was “increased”.
